Series [1] has as its system Streptococcus pneumoniae, R6. The series is described as follows: Minimal inhibitory concentration assay. The class given is cell-based. The settings on record: read-out: Minimal Inhibitory Concentrations S. pneumoniae R6. The essentials:
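Microbroth dilution with two-fold serial compound dilutions in broth, incubated aerobically overnight at 37° C. MIC taken as the lowest concentration preventing bacterial growth.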

In series [2] the target is T1, Sa-ClpP (Staphylococcus aureus, UniProt Q2G036).
T1 construct: made in house; host or cells: E. coli BL21(DE3)
T1 sequence (Q2G036 1-195): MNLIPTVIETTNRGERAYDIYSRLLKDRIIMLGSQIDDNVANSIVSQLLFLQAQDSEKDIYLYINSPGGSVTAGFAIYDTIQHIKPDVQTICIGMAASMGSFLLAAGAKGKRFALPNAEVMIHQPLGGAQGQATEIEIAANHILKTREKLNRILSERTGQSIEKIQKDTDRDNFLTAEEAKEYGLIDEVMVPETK
The series is described as follows: Casein-BODIPY assay, second described ClpP activation method (EnzCheck Protease Assay, 384 well). The class given is biochemical, S. aureus. The settings on record: values marked †: second described ClpP activation assay. As to the method:
Alternatively, the assay was carried out using EnzCheck Protease Assay (Molecular Probes, Catalog # E6638). The assay was performed in black 384 well, flat bottom, low volume plates (Greiner Bio-One, Monroe, N.C., catalog #784076). 10 μL of Tris*HCl buffer, pH 8.0 with 0.01% Triton X-100 was pipetted into each well using a Well-Mate (Thermo Scientific, Waltham, Mass.). 0.4 μL test compounds or controls (2% DMSO v/v) were added to each well using a Biomek FX liquid handling robot (Beckman Coulter, Indianapolis Ind.). After addition of test compounds and controls, 10 μL of master mix containing 2 μM Sa-ClpP and 2 μM substrate (Bodipy-FL labeled casein) in Tris*HCl buffer, pH 8.0 with 0.01% (v/v) Triton X-100, was pipetted into each well. All assays were performed in triplicate, under linear velocity conditions. Increase in fluorescent signal following activation of Sa-ClpP by test compounds and controls was measured over time period of 30 mins using filters with excitation at 485±15 nm and emission at 520±25 nm on a PHERAstar FS Multilabel reader (BMG, Cary, N.C.). […] Data analysis was done by measuring rate of casein degradation over time (slopes). Computed degradation rates (slopes) were normalized to positive (ADEP4) or negative (DMSO) controls. Using nonlinear regression curve fitting EC50 values and % activation were determined using the equation “log [agonist] vs. Response-variable slope (four parameters)-symmetrical” in the program Prism 6 (GraphPad Software, La Jolla, Calif. USA, www.graphpad.com).

The subject of series [3] is Staphylococcus aureus, USA 300 wherein ClpP is inactivated. The series is described as follows: Minimal inhibitory concentration assay. The class given is cell-based. The gist of the method: (§1)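 Visual read-out; MIC is the lowest drug concentration with no bacterial growth after overnight aerobic incubation at 37 °C. Compound was tested in two-fold dilutions starting at 200 μM final, with an inoculum of approximately 10^5 cfu/mL, following CLSI microdilution guidance.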

Series [4] has as its system Staphylococcus aureus, USA 300. The series is described as follows: Minimal inhibitory concentration assay. The class given is cell-based. As to conditions: USA300, read-out: Minimal Inhibitory Concentrations S. aureus USA 300. The essentials:
as §1

A short description of series [5]: physchem. As to conditions: 22 °C, aqueous buffer, kinetic from dmso stock.

≈ marks a conversion by molar mass, not a printed value. *1 amine or outer side, *2 acyl side, *3 side chain or, on linkers, in order; H or OH if unused. Where a SMILES comes first, the peptide text is derived from it. Bridges are numbered along the chain shown (N, C = ends). [ ]: non-standard residue; d: D form. The star is where a group is joined. ξ: configuration not given here. Phe(3,5-F2) = N[C@@H](Cc1cc(F)cc(F)c1)C(=O)O; NMepT = CN[C@H](C(=O)O)[C@@H](C)OP(=O)(O)O; NH(4-OCF3-phenyl) = FC(F)(F)Oc1ccc(N*)cc1; Pro(4S-Me) = C[C@@H]1CN[C@H](C(=O)O)C1; Pro(4R-Me) = C[C@H]1CN[C@H](C(=O)O)C1; ξPro(4R-OH) = O=C(O)C1C[C@@H](O)CN1; ξPro(4R-Me) = C[C@H]1CNC(C(=O)O)C1; NH(4-Et-phenyl) = CCc1ccc(N*)cc1; NMeT = CN[C@H](C(=O)O)[C@@H](C)O; NH(4-Me-phenyl) = Cc1ccc(N*)cc1; aThr = C[C@H](O)[C@H](N)C(=O)O; NMeA = CN[C@@H](C)C(=O)O; CO = O=C([*:1])[*:2]

Take `Cc1ccc(NC(=O)N[C@@H](Cc2cc(F)cc(F)c2)C(=O)N[C@@H]2C(=O)N3C[C@H](O)CC3C(=O)N(C)[C@@H](C)C(=O)N[C@@H](C)C(=O)N3C[C@H](C)CC3C(=O)O[C@H]2C)cc1` (stereo partly drawn) [Compound 31, (S)-3-(3,5-difluorophenyl)-N-((2S,6S,9S,11aS,13R,17S,18S,20aS)-13-hydroxy-2,6,9,10,18-pentamethyl-5,8,11,16,20-pentaoxohexadecahydro-1H,5H,16H-dipyrrolo[2,1-c:2′,1′-l][1]oxa[4,7,10,13]tetraazacyclohexadecin-17-yl)-2-(3-(p-tolyl)ureido)propanamide] ({NH(4-Me-phenyl)-CO}-[Phe(3,5-F2)][aThr][ξPro(4R-OH)][NMeA]A[ξPro(4R-Me)]; ester 2-C): the MIC in series [1] came to 0.195 µM (≈ 0.156 µg/mL); in series [4], 1.56 µM (≈ 1.24 µg/mL). It took 370 ± 30 nM to reach a half-maximal effect in series [2] (EC50). The “Minimal Inhibitory Concentrations S. aureus USA 300 ΔClpP” value in series [3] was >200 µM.

As to `Cc1ccc(NC(=O)N[C@@H](Cc2cc(F)cc(F)c2)C(=O)N[C@@H]2C(=O)N3CCC[C@H]3C(=O)N(C)[C@@H]([C@@H](C)O)C(=O)N[C@@H](C)C(=O)N3C[C@@H](C)C[C@H]3C(=O)O[C@H]2C)cc1` [Compound 35, (S)-3-(3,5-difluorophenyl)-N-((2S,6S,9S,11aS,17S,18S,20aS)-9-((R)-1-hydroxyethyl)-2,6,10,18-tetramethyl-5,8,11,16,20-pentaoxohexadecahydro-1H,5H,16H-dipyrrolo[2,1-c:2′,1′-l][1]oxa[4,7,10,13]tetraazacyclohexadecin-17-yl)-2-(3-(p-tolyl)ureido)propanamide] ({NH(4-Me-phenyl)-CO}-[Phe(3,5-F2)][aThr]P[NMeT]A[Pro(4S-Me)]; ester 2-C), the MIC in series [1] is 0.049 µM (≈ 0.0398 µg/mL); in series [4] it was 0.2 µM (≈ 0.162 µg/mL). Besides, the EC50 in series [2] worked out at 480 ± 30 nM. For the same molecule, the “Minimal Inhibitory Concentrations S. aureus USA 300 ΔClpP” value in series [3] worked out at 200 µM.

With `C[C@H]1C[C@H]2C(=O)O[C@@H](C)[C@H](NC(=O)[C@H](Cc3cc(F)cc(F)c3)NC(=O)Nc3ccc(OC(F)(F)F)cc3)C(=O)N3CCC[C@H]3C(=O)N(C)[C@@H]([C@@H](C)O)C(=O)N[C@@H](C)C(=O)N2C1` [Compound 36, (S)-3-(3,5-difluorophenyl)-N-((2S,6S,9S,11aS,17S,18S,20aS)-9-((R)-1-hydroxyethyl)-2,6,10,18-tetramethyl-5,8,11,16,20-pentaoxohexadecahydro-1H,5H,16H-dipyrrolo[2,1-c:2′,1′-l][1]oxa[4,7,10,13]tetraazacyclohexadecin-17-yl)-2-(3-(4-(trifluoromethoxy)phenyl)ureido)propanamide] ({NH(4-OCF3-phenyl)-CO}-[Phe(3,5-F2)][aThr]P[NMeT]A[Pro(4S-Me)]; ester 2-C), the values for the MIC in series [1] and in series [4] were 0.024 µM (≈ 0.0212 µg/mL) and 0.1 µM (≈ 0.0882 µg/mL), respectively. The molecule also yielded an EC50 in series [2] of 430 ± 10 nM. In addition, the “Minimal Inhibitory Concentrations S. aureus USA 300 ΔClpP” value in series [3] was 50 µM.

As for `CCc1ccc(NC(=O)N[C@@H](Cc2cc(F)cc(F)c2)C(=O)N[C@@H]2C(=O)N3CCC[C@H]3C(=O)N(C)[C@@H]([C@@H](C)O)C(=O)N[C@@H](C)C(=O)N3C[C@@H](C)C[C@H]3C(=O)O[C@H]2C)cc1` [Compound 37, (S)-3-(3,5-difluorophenyl)-2-(3-(4-ethylphenyl)ureido)-N-((2S,6S,9S,11aS,17S,18S,20aS)-9-((R)-1-hydroxyethyl)-2,6,10,18-tetramethyl-5,8,11,16,20-pentaoxohexadecahydro-1H,5H,16H-dipyrrolo[2,1-c:2′,1′-l][1]oxa[4,7,10,13]tetraazacyclohexadecin-17-yl)propanamide] ({NH(4-Et-phenyl)-CO}-[Phe(3,5-F2)][aThr]P[NMeT]A[Pro(4S-Me)]; ester 2-C), the results for the MIC in series [1] and in series [4] were 0.024 µM (≈ 0.0198 µg/mL) and 0.1 µM (≈ 0.0826 µg/mL), respectively. In series [2], this molecule yielded an EC50 of 350 ± 10 nM. The “Minimal Inhibitory Concentrations S. aureus USA 300 ΔClpP” value in series [3] is 100 µM.

Take `Cc1ccc(NC(=O)N[C@@H](Cc2cc(F)cc(F)c2)C(=O)N[C@@H]2C(=O)N3CCC[C@H]3C(=O)N(C)[C@@H]([C@@H](C)O)C(=O)N[C@@H](C)C(=O)N3C[C@H](C)C[C@H]3C(=O)O[C@H]2C)cc1` [Compound 38, (S)-3-(3,5-difluorophenyl)-N-((2R,6S,9S,11aS,17S,18S,20aS)-9-((R)-1-hydroxyethyl)-2,6,10,18-tetramethyl-5,8,11,16,20-pentaoxohexadecahydro-1H,5H,16H-dipyrrolo[2,1-c:2′,1′-l][1]oxa[4,7,10,13]tetraazacyclohexadecin-17-yl)-2-(3-(p-tolyl)ureido)propanamide] ({NH(4-Me-phenyl)-CO}-[Phe(3,5-F2)][aThr]P[NMeT]A[Pro(4R-Me)]; ester 2-C): the MIC turned out to be 0.02 µM (≈ 0.0162 µg/mL) in series [1] and 0.1 µM (≈ 0.0812 µg/mL) in series [4]. Besides, in series [2], the response was half-maximal at 330 ± 10 nM (EC50). Besides, in series [3], the “Minimal Inhibitory Concentrations S. aureus USA 300 ΔClpP” value amounted to 200 µM.

For `C[C@@H]1C[C@H]2C(=O)O[C@@H](C)[C@H](NC(=O)[C@H](Cc3cc(F)cc(F)c3)NC(=O)Nc3ccc(OC(F)(F)F)cc3)C(=O)N3CCC[C@H]3C(=O)N(C)[C@@H]([C@@H](C)O)C(=O)N[C@@H](C)C(=O)N2C1` [Compound 41, (S)-3-(3,5-difluorophenyl)-N-((2R,6S,9S,11aS,17S,18S,20aS)-9-((R)-1-hydroxyethyl)-2,6,10,18-tetramethyl-5,8,11,16,20-pentaoxohexadecahydro-1H,5H,16H-dipyrrolo[2,1-c:2′,1′-l][1]oxa[4,7,10,13]tetraazacyclohexadecin-17-yl)-2-(3-(4-(trifluoromethoxy)phenyl)ureido)propanamide] ({NH(4-OCF3-phenyl)-CO}-[Phe(3,5-F2)][aThr]P[NMeT]A[Pro(4R-Me)]; ester 2-C), the MIC in series [1] and in series [4] was 0.02 µM (≈ 0.0176 µg/mL) throughout. Further, the EC50 in series [2] is 310 ± 10 nM. Also, the “Minimal Inhibitory Concentrations S. aureus USA 300 ΔClpP” value in series [3] is 50 µM.

Consider `CCc1ccc(NC(=O)N[C@@H](Cc2cc(F)cc(F)c2)C(=O)N[C@@H]2C(=O)N3CCC[C@H]3C(=O)N(C)[C@@H]([C@@H](C)O)C(=O)N[C@@H](C)C(=O)N3C[C@H](C)C[C@H]3C(=O)O[C@H]2C)cc1` [Compound 42, (S)-3-(3,5-difluorophenyl)-2-(3-(4-ethylphenyl)ureido)-N-((2R,6S,9S,11aS,17S,18S,20aS)-9-((R)-1-hydroxyethyl)-2,6,10,18-tetramethyl-5,8,11,16,20-pentaoxohexadecahydro-1H,5H,16H-dipyrrolo[2,1-c:2′,1′-l][1]oxa[4,7,10,13]tetraazacyclohexadecin-17-yl)propanamide] ({NH(4-Et-phenyl)-CO}-[Phe(3,5-F2)][aThr]P[NMeT]A[Pro(4R-Me)]; ester 2-C), for which the MIC in series [1] was 0.01 µM (≈ 0.00826 µg/mL); in series [4], 0.1 µM (≈ 0.0826 µg/mL). In series [2], the 50% effective concentration (EC50) stood at 250 ± 30 nM. The “Minimal Inhibitory Concentrations S. aureus USA 300 ΔClpP” value in series [3] was 100 µM.

For the molecule `Cc1ccc(NC(=O)N[C@@H](Cc2cc(F)cc(F)c2)C(=O)N[C@@H]2C(=O)N3CCC[C@H]3C(=O)N(C)[C@@H]([C@@H](C)OP(=O)(O)O)C(=O)N[C@@H](C)C(=O)N3C[C@@H](C)C[C@H]3C(=O)O[C@H]2C)cc1` [Compound 188, (R)-1-((2S,6S,9S,11aS,17S,18S,20aS)-17-((S)-3-(3,5-difluorophenyl)-2-(3-(p-tolyl)ureido)propanamido)-2,6,10,18-tetramethyl-5,8,11,16,20-pentaoxohexadecahydro-1H,5H,16H-dipyrrolo[2,1-c:2′,1′-l][1]oxa[4,7,10,13]tetraazacyclohexadecin-9-yl)ethyl dihydrogen phosphate] ({NH(4-Me-phenyl)-CO}-[Phe(3,5-F2)][aThr]P[NMepT]A[Pro(4S-Me)]; ester 2-C), the figures for the MIC in series [1] and in series [4] were 13 µM and 50 µM, respectively. The solubility in series [5] stood at 107 ± 2.7 µM. The “Minimal Inhibitory Concentrations S. aureus USA 300 ΔClpP” value in series [3] is >200 µM.
